Laboratory results published in ChEMBL document CHEMBL1201862, “PubChem BioAssay data set” (2004).
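Interpolation was linear, between the two tested concentrations surrounding the appropriate level; five concentrations were tested over 48 hours in 96-well plates. GI50 is the concentration that inhibits growth by half.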 Activity calls are given as the source filed them. Cut-off read from the data, not from the text of the source: active = GI50 up to about 1.1 µM and inactive = higher.

Legend:
Assay in all cases: NCI-60 cell line screen, 48 h
SF-295 = test system: SF-295
CCRF-CEM = test system: CCRF-CEM
SR = test system: SR
MOLT-4 = test system: MOLT-4
OVCAR-3 = test system: OVCAR-3
UACC-62 = test system: UACC-62
SNB-75 = test system: SNB-75
COLO 205 = test system: COLO 205
UACC-257 = test system: UACC-257
HCC 2998 = test system: HCC 2998
KM12 = test system: KM12
HT-29 = test system: HT-29
SK-OV-3 = test system: SK-OV-3
A549 = test system: A549
DMS-114 = test system: DMS-114
OVCAR-5 = test system: OVCAR-5
U-251 = test system: U-251
SK-MEL-2 = test system: SK-MEL-2
Hs-578T = test system: Hs-578T
HOP-92 = test system: HOP-92

SMILES | GI50 (SF-295) | GI50 (CCRF-CEM) | GI50 (SR) | GI50 (MOLT-4) | GI50 (OVCAR-3) | GI50 (UACC-62) | GI50 (SNB-75) | GI50 (COLO 205) | GI50 (UACC-257) | GI50 (HCC 2998) | GI50 (KM12) | GI50 (HT-29) | GI50 (SK-OV-3) | GI50 (A549) | GI50 (DMS-114) | GI50 (OVCAR-5) | GI50 (U-251) | GI50 (SK-MEL-2) | GI50 (Hs-578T) | GI50 (HOP-92)
c1ccc2c(c1)CCc1c(-c3ccncc3)n[nH]c1-2 | 45.7 µM (inactive) | 14.2 µM (inactive) | 27.8 µM (inactive) | 36 µM (inactive) | 16.7 µM (inactive) | 16.4 µM (inactive) | 26.3 µM (inactive) | 25.7 µM (inactive) | 25.6 µM (inactive) | 33.1 µM (inactive) | 21.8 µM (inactive) | 44.6 µM (inactive) | 33.4 µM (inactive) | 30.8 µM (inactive) | 17.2 µM (inactive) | 32.7 µM (inactive) | 13.6 µM (inactive) | 17.9 µM (inactive) | – | –
Cc1ccc(/C=N/Nc2cc(C)c3ccccc3n2)s1 | 15.1 µM (inactive) | 13.1 µM (inactive) | 6.38 µM (inactive) | 1.42 µM (inactive) | 2.65 µM (inactive) | 23.4 µM (inactive) | 31.6 µM (inactive) | 4.71 µM (inactive) | 7.53 µM (inactive) | 15.3 µM (inactive) | 16.4 µM (inactive) | 3.85 µM (inactive) | 19.3 µM (inactive) | 16.5 µM (inactive) | – | 15.6 µM (inactive) | 16.8 µM (inactive) | 34.1 µM (inactive) | 31.5 µM (inactive) | 27.2 µM (inactive)
CC(C)Oc1cccc(N2C(CCc3c[nH]c4ccc(Br)cc34)=NS(=O)(=O)c3cnccc32)c1 | 25.7 µM (inactive) | 95.5 µM (inactive) | 35.3 µM (inactive) | 14.8 µM (inactive) | 51.3 µM (inactive) | 33.3 µM (inactive) | 48 µM (inactive) | 17.9 µM (inactive) | 50.8 µM (inactive) | 60.4 µM (inactive) | 49.7 µM (inactive) | 26.2 µM (inactive) | 36.8 µM (inactive) | 29.2 µM (inactive) | – | 29.1 µM (inactive) | 64.6 µM (inactive) | 53.2 µM (inactive) | 64.6 µM (inactive) | 17.5 µM (inactive)
Cc1ccc(NC(=O)CC2SC(Nc3cccc(Cl)c3C)=NC2=O)cc1 (stereo not given) | 39.6 µM (inactive) | 32.1 µM (inactive) | – | 33 µM (inactive) | 23 µM (inactive) | 42 µM (inactive) | > 100 µM (inactive) | 64.7 µM (inactive) | 48 µM (inactive) | 99.8 µM (inactive) | 40.9 µM (inactive) | > 100 µM (inactive) | > 100 µM (inactive) | 51.1 µM (inactive) | 29.9 µM (inactive) | > 100 µM (inactive) | 50.4 µM (inactive) | 44.6 µM (inactive) | – | –
CC1CCCC(C(=O)/C(=C/c2cccc(Cl)c2)C(=O)C(=O)O)C1 (stereo not given) | 50.4 µM (inactive) | 19.3 µM (inactive) | – | 19 µM (inactive) | 24.7 µM (inactive) | 36.9 µM (inactive) | 29.9 µM (inactive) | 37.3 µM (inactive) | 59.8 µM (inactive) | 12.8 µM (inactive) | 15.6 µM (inactive) | 18.4 µM (inactive) | 81.5 µM (inactive) | 60.7 µM (inactive) | 21 µM (inactive) | > 100 µM (inactive) | 17.3 µM (inactive) | – | – | 39 µM (inactive)
COc1ccc(OC)c2c1C(=O)C1CC1(Br)C2=O (stereo not given) | > 100 µM (inactive) | > 100 µM (inactive) | – | > 100 µM (inactive) | > 100 µM (inactive) | > 100 µM (inactive) | – | > 100 µM (inactive) | > 100 µM (inactive) | > 100 µM (inactive) | > 100 µM (inactive) | > 100 µM (inactive) | > 100 µM (inactive) | > 100 µM (inactive) | > 100 µM (inactive) | > 100 µM (inactive) | > 100 µM (inactive) | > 100 µM (inactive) | – | –
O=C(CC(=O)N1N=C(n2ccc3ccccc32)CC1c1ccccc1)Nc1ccc(Cl)cc1 (stereo not given) | > 100 µM (inactive) | > 100 µM (inactive) | – | 8.39 µM (inactive) | > 100 µM (inactive) | > 100 µM (inactive) | 59.7 µM (inactive) | > 100 µM (inactive) | > 100 µM (inactive) | > 100 µM (inactive) | > 100 µM (inactive) | > 100 µM (inactive) | > 100 µM (inactive) | > 100 µM (inactive) | > 100 µM (inactive) | > 100 µM (inactive) | > 100 µM (inactive) | > 100 µM (inactive) | – | 77.6 µM (inactive)
CC1CCC23COC(=O)C2C(O)CCC3C1(C)CC(O)c1ccoc1 (stereo not given) | > 100 µM (inactive) | > 100 µM (inactive) | – | > 100 µM (inactive) | > 100 µM (inactive) | > 100 µM (inactive) | 41.3 µM (inactive) | > 100 µM (inactive) | > 100 µM (inactive) | > 100 µM (inactive) | > 100 µM (inactive) | > 100 µM (inactive) | > 100 µM (inactive) | > 100 µM (inactive) | > 100 µM (inactive) | > 100 µM (inactive) | > 100 µM (inactive) | > 100 µM (inactive) | – | > 100 µM (inactive)
COc1cccc2c1C(=O)c1c(O)c3c(c(O)c1C2=O)C[C@@](O)(C(=O)CO)CC3OC1CC(N(C)CCOCC(OC(C)=O)OC(C)=O)C(O)C(C)O1 (stereo not given in full) | > 0.01 µM (active) | > 0.01 µM (active) | – | > 0.01 µM (active) | > 0.01 µM (active) | > 0.01 µM (active) | > 0.01 µM (active) | – | > 0.01 µM (active) | > 0.01 µM (active) | > 0.01 µM (active) | > 0.01 µM (active) | > 0.01 µM (active) | > 0.01 µM (active) | > 0.01 µM (active) | > 0.01 µM (active) | > 0.01 µM (active) | > 0.01 µM (active) | – | > 0.01 µM (active)
CC(O)(c1ccc(OCCC[N+](C)(C)C)cc1)C(C)(O)c1ccc(OCCC[N+](C)(C)C)cc1 (stereo not given) | > 100 µM (inactive) | > 100 µM (inactive) | – | – | > 100 µM (inactive) | > 100 µM (inactive) | > 100 µM (inactive) | > 100 µM (inactive) | > 100 µM (inactive) | > 100 µM (inactive) | > 100 µM (inactive) | > 100 µM (inactive) | > 100 µM (inactive) | > 100 µM (inactive) | > 100 µM (inactive) | > 100 µM (inactive) | > 100 µM (inactive) | > 100 µM (inactive) | – | > 100 µM (inactive)
CCOC(=O)C1=C(C)NC(C)=C(C(=O)OCCNC(=O)c2ccc(N=[N+]=[N-])cc2)C1c1ccccc1C(F)(F)F (stereo not given) [AZIDOPINE] | 8.61 µM (inactive) | 6.55 µM (inactive) | 4.44 µM (inactive) | 4.09 µM (inactive) | 9.06 µM (inactive) | 11.2 µM (inactive) | > 10 µM (inactive) | 6.25 µM (inactive) | 11.5 µM (inactive) | 13.2 µM (inactive) | 7.85 µM (inactive) | 9.46 µM (inactive) | 13.3 µM (inactive) | 8 µM (inactive) | – | 19.9 µM (inactive) | 10.9 µM (inactive) | 6.53 µM (inactive) | 12.7 µM (inactive) | 2.01 µM (inactive)
